Experimental data taken from ChEMBL document CHEMBL3507680, “University of Dundee, Gates Library screen for HepG2 cell viability”.

Experiment: Human HepG2 cell viability assay in 384 well format
Type: toxicity, cell-based
Design: dose 125 nL, time 70.5 hour; cytotoxicity at 70.5 h: concentration not given beside the values
Details: HepG2 cells, read-out: Inhibition

Question: For `O=C(CCN1CCN(c2ccc3nncn3n2)CC1)NC1CCCC1`, which cytotoxicity at 70.5 h is on record?
Answer: -5.28%

Question: For `Cc1cc2c(cc1C)C(NCc1nnc3n1CCCCC3)CCCO2` (stereo not given), which cytotoxicity at 70.5 h is on record?
Answer: -7.63%

Question: Which cytotoxicity at 70.5 h does the source give for `Cc1ccc(C(C)NC(=O)N2CCNC(=O)CC2)cc1F` (stereo not given) here?
Answer: -17.7%

Question: For `CC(C)CN1C[C@H]2C[C@H](C(=O)Nc3cccnc3)[C@@H](C1)O2`, which cytotoxicity at 70.5 h is on record?
Answer: -4.05%

Question: Which cytotoxicity at 70.5 h does the source give for `Cc1ccc(N2CCN(C(=O)CCC(F)(F)F)C(C)C2)cc1` (stereo not given) here?
Answer: -18.6%

Question: With `COCCN(Cc1ccoc1)C(=O)c1cccnc1SC` as the compound, how does the cytotoxicity at 70.5 h read?
Answer: -0.295%

Question: For `CC(Cn1cccn1)NCC(=O)NC1(C#N)CCCCC1` (stereo not given), which cytotoxicity at 70.5 h is on record?
Answer: 21.3%

Question: For `Cc1cc(C)n(CC2CCCCN2C(=O)c2ccc3c(c2)OCO3)n1` (stereo not given), which cytotoxicity at 70.5 h is on record?
Answer: -2.07%

Question: With `CCC(C)NC(=O)c1cc(S(=O)(=O)N(C)C)c(C)s1` (stereo not given) as the compound, how does the cytotoxicity at 70.5 h read?
Answer: -4.34%

Question: For `Cc1cc(NC2CCN(Cc3ccccn3)CC2)n2nc(C)c(C)c2n1`, which cytotoxicity at 70.5 h is on record?
Answer: 0.979%

Question: Which cytotoxicity at 70.5 h does the source give for `CC(C)=CCN1CCN(CCCOc2ccccc2)[C@H]2CS(=O)(=O)C[C@H]21` here?
Answer: -4.88%

Question: For `Cn1cccc1C(O)CNS(=O)(=O)c1ccccc1Br` (stereo not given), which cytotoxicity at 70.5 h is on record?
Answer: -0.453%

Question: With `O=C(Nc1cccnc1)C1=NN(c2ccccc2)C(=O)CN1` as the compound, how does the cytotoxicity at 70.5 h read?
Answer: 6.02%

Question: With `Cc1ccc(C(=O)N2CCCC(c3cc(C(F)(F)F)[nH]n3)C2)o1` (stereo not given) as the compound, how does the cytotoxicity at 70.5 h read?
Answer: -5.23%

Question: With `O=C(NCC1CCOCC1)[C@@H]1CC[C@@H]2[C@@H](CCN2Cc2ccncc2)O1` as the compound, how does the cytotoxicity at 70.5 h read?
Answer: -0.695%

Question: For `CCOCC(O)CN1CCN(C(=O)c2cc(C)ccc2F)CC1` (stereo not given), which cytotoxicity at 70.5 h is on record?
Answer: -3.47%

Question: With `CC(C)c1ccc(CNC(C)c2ccc(S(C)(=O)=O)cc2)cc1` (stereo not given) as the compound, how does the cytotoxicity at 70.5 h read?
Answer: -8.82%

Question: Which cytotoxicity at 70.5 h does the source give for `Cc1c(F)cc(C(=O)O)cc1S(=O)(=O)Nc1cccc(C(F)F)c1` here?
Answer: -10.3%

Question: Which cytotoxicity at 70.5 h does the source give for `CC(C)NC[C@H]1COCc2nc3cccnc3n21` here?
Answer: -8.17%

Question: For `Cc1cc(CNC(=O)N2CCN(c3ccccc3)CC2)no1`, which cytotoxicity at 70.5 h is on record?
Answer: -3.89%

Question: With `COCCN1CCCn2cnc(CNC3CCCC3)c2C1` as the compound, how does the cytotoxicity at 70.5 h read?
Answer: 0.0497%

Question: For `Cc1ccccc1NC(=O)NCCn1nc(C(F)(F)F)n(C)c1=O`, which cytotoxicity at 70.5 h is on record?
Answer: -2.02%

Question: For `CCn1cc(S(=O)(=O)Nc2nc3c(s2)CC(C)CC3)cn1` (stereo not given), which cytotoxicity at 70.5 h is on record?
Answer: -6.65%

Question: For `CCS(=O)(=O)N1CCC(OCCCc2ccccc2)C1` (stereo not given), which cytotoxicity at 70.5 h is on record?
Answer: -3.57%

Question: For `CS(=O)(=O)N1CC[C@H]2O[C@H](C(=O)NCc3cccnc3)CC[C@H]21`, which cytotoxicity at 70.5 h is on record?
Answer: 0.629%

Question: Which cytotoxicity at 70.5 h does the source give for `CCC(CC)n1nc(C)cc1NC(=O)C1CCOC1` (stereo not given) here?
Answer: -6.47%

Question: With `Cc1cccc(N2CCC3(CCCN3Cc3cnn(C)c3C)CC2)n1` as the compound, how does the cytotoxicity at 70.5 h read?
Answer: 2.08%

Question: For `Cc1cc(N2CCC(Cc3ncccn3)C2)ncn1` (stereo not given), which cytotoxicity at 70.5 h is on record?
Answer: -6.02%

Question: With `Cc1ccnc(N2CCC(=O)N(Cc3ccc(F)cc3)C(C(C)C)C2)n1` (stereo not given) as the compound, how does the cytotoxicity at 70.5 h read?
Answer: -9.2%

Question: For `Nc1nc2c(c(NC(Cn3cccn3)c3ccccc3)n1)CCNCC2` (stereo not given), which cytotoxicity at 70.5 h is on record?
Answer: 0.802%

Question: Which cytotoxicity at 70.5 h does the source give for `COc1ccccc1C1CNCCN1C(C)=O` (stereo not given) here?
Answer: -15.3%

Question: For `Cn1nccc1-c1cncc(C2CCCN(S(C)(=O)=O)C2)n1` (stereo not given), which cytotoxicity at 70.5 h is on record?
Answer: -7.56%

Question: Which cytotoxicity at 70.5 h does the source give for `Cc1ccc(N2CC[C@@]3(O)CCN(S(C)(=O)=O)C[C@H]3C2)nn1` here?
Answer: 6.8%

Question: Which cytotoxicity at 70.5 h does the source give for `O=C(NCC1(c2ccc(F)cc2)CCC1)N1CCC2(C1)OCCO2` here?
Answer: -8.6%

Question: Which cytotoxicity at 70.5 h does the source give for `CCCN(Cc1cccnc1)C(=O)C1CCCN(C)C1` (stereo not given) here?
Answer: 2.68%

Question: For `CN(C)S(=O)(=O)NCCn1nc(-c2ccccc2)n(C)c1=O`, which cytotoxicity at 70.5 h is on record?
Answer: -4.25%

Question: Which cytotoxicity at 70.5 h does the source give for `Cc1cnn(CC2CCCCN2Cc2nc(C)c3ccccc3n2)c1` (stereo not given) here?
Answer: -1.81%

Question: Which cytotoxicity at 70.5 h does the source give for `O=C(c1cc2cc(F)ccc2[nH]1)N1CCCCC1Cn1cccn1` (stereo not given) here?
Answer: -0.801%

Question: Which cytotoxicity at 70.5 h does the source give for `Oc1cc(-c2nccs2)nc(C2CCN(Cc3cccs3)CC2)n1` here?
Answer: -8.93%

Question: For `Cc1cc(N2CCC(C(=O)NC3CC3)CC2)nc(-c2ccncc2)n1`, which cytotoxicity at 70.5 h is on record?
Answer: -7.6%

Question: For `CNC(=O)c1cc2c(nc1NCC1CC1)CCN(CC1CC1)CC2`, which cytotoxicity at 70.5 h is on record?
Answer: -26.7%

Question: With `Cc1cc(C(=O)N2CCCC2c2nnc3n2CCCCC3)on1` (stereo not given) as the compound, how does the cytotoxicity at 70.5 h read?
Answer: -2.64%

Question: For `c1csc(N2CCCN(c3ncnc4sccc34)CC2)n1`, which cytotoxicity at 70.5 h is on record?
Answer: 10.8%

Question: For `CN(C)CCNc1cc(-c2ncccc2C(F)(F)F)c2cc[nH]c2n1`, which cytotoxicity at 70.5 h is on record?
Answer: -6.02%

Question: For `CCOC(C)C(=O)N(C)C1CCN(c2ccc(OC)cc2)CC1` (stereo not given), which cytotoxicity at 70.5 h is on record?
Answer: -4.16%
